The text below walks through data of EPA's ToxValDB 9.5 (doi:10.2903/j.efsa.2015.4043).

≈ marks a conversion by molar mass, not a printed value. Bounds are passed on as bounds.

One data set has as its system Apis mellifera. Conditions: acute, mortality.
For the next data set, the system named is Cyprinus carpio. Conditions: acute; duration: 96 hours; mortality.
In another data set the test system is Pimephales promelas. Particulars: chronic/long-term; duration: 32 days; growth.
In the next data set the test system is Colinus virginianus. Particulars: acute, oral, mortality.
Another data set deals with Gammaridae. Particulars: chronic/long-term; duration: 28 days.
The subject of the next data set is Anas platyrhynchos. Conditions: reproductive.

Regarding `Cn1cc(C(=O)Nc2cccc3c2[C@@H]2CC[C@H]3C2=C(Cl)Cl)c(C(F)F)n1` [Benzovindiflupyr], the LD50 with Apis mellifera (dermal) was above 100 µg/piece; in the data set on Apis mellifera (oral, unspecified) it was above 109 µg/piece; in the data set with Rattus norvegicus (acute, mortality), 55 mg/kg; with Colinus virginianus, 1320 mg/kg. Moreover, the LC50 in the data set with Pontoscolex corethrurus (acute, duration: 14 days, mortality) is 406 mg/kg; in the data set on Cyprinus carpio, 0.0035 µg/mL (≈ 0.00879 µM); in the data set on Colinus virginianus (diet), above 1170 mg/kg-day; with Neomysis kadiakensis (acute, duration: 96 hours, mortality), 0.056 µg/mL (≈ 0.141 µM). The NOEC in the data set on Pontoscolex corethrurus (chronic/long-term, duration: 8 weeks) came out at 7.81 mg/kg; in the data set with Pimephales promelas it was 0.00095 mg/L; in the data set with Neomysis kadiakensis (chronic/long-term, duration: 28 days, reproduction), 0.0074 mg/L; in the data set on Gammaridae, 4.1 mg/kg; with Anas platyrhynchos, 25 mg/kg-day. The NOAEL (usually the highest dose or exposure tested at which no adverse effect was seen) is 10 mg/kg-day in the data set on Rattus norvegicus (acute, neurology); 6.8 mg/kg-day in the data set with Rattus norvegicus (chronic); 4.88 mg/kg-day with Rattus norvegicus (chronic, duration: 2 years, histopathology: nonneoplastic); 6.8 mg/kg-day in the data set on Rattus norvegicus (reproduction developmental, M/F, reproduction); 7.6 mg/kg-day in the data set on Rattus norvegicus (subchronic, duration: 90 days, oral, organ weight).
